Test results: patent US20190365745A1, “USE OF CHRONIC TREATMENT WITH ATR INHIBITORS TO SENSITIZE CANCER CELLS TO PARP INHIBITORS” (Cornell University, priority 2018, published 2019)

How the values were obtained:
ATR = biological target: T1, ATR (Homo sapiens, UniProt Q13535); test: Western blot of phospho-CHK1(S345) in HU-treated cells; assay type: cell-based; settings: 5 μM ATRi; HU-treated U2OS cells
T1 construct: endogenous in cells; host or cells: U2OS (human osteosarcoma)
Experimental: FIG. 3 is a Western Blot (“WB”) of U2OS cells treated with ATRi for 30 minutes prior to a 3-hour HU treatment. WB analysis was performed against phospho-CHK1(S345), CHK1 and Actin.
Cells were harvested and lysed in modified radioimmunoprecipitation assay (RIPA) buffer (50 mM Tris-HCl pH 7.5, 150 mM NaCl, 1% tergitol, 0.25% sodium deoxycholate, 5 mM EDTA) supplemented with Complete EDTA-free protease inhibitor cocktail (Roche), 1 mM PMSF, 5 mM sodium fluoride, 10 mM β-glycerol-phosphate and 0.4 mM sodium orthovanadate. Whole cell lysates were cleared with 5 minute centrifugation at 13,000 rpm at 4° C. and mixed with 3×SDS sample buffer (bromophenol blue, stacking gel buffer, 50% glycerol, 3% SDS and 60 mM DTT). After being resolved on SDS-PAGE gels, proteins were then transferred onto polyvinylidene difluoride (PVDF) membranes and detected with designated antibodies.

U2OS cells [1] = test: Real time PCR of mRNA levels; assay type: cell-based, Human; settings: normalized to GAPDH
Text: FIG. 9B is a bar graph showing the analysis of HR-mediated repair using the DR-GFP system. Relative fold change of GFP positive U2OS cells treated with CHK1i compared to DMSO treatment control. (Error bars=SEM, N=4, ****P-value<0.0001; one sample-t-test was used for the statistical analysis). FIGS. 9C-9D show a histogram showing representative FACS data (FIG. 9C) and a bar graph showing quantitation of G1, S and G2/M population for cell cycle analysis of CHK1i treated cells (FIG. 9D) (Error bars=SD, N=3). FIG. 9E are bar graphs showing real time PCR analysis of total RNA extracted from U2OS cells treated with DMSO, ATRi (5 μM for 8 days) or CHK1i (0.2 μM for 5 days). Values were normalized to GAPDH mRNA levels. (Error bars=SD, N=3). FIG. 9F is a schematic diagram showing a proposed model of how E2F transcription is regulated through ATR-CHK1 signaling. […] FIG. 9H is a bar graph showing DR-GFP analysis of 293-T-REX-E2F6 cells after 8 days of treatment with DMSO or doxycycline. (Error bars=SEM, N=4). FIG. 9I is a histogram showing cell cycle analysis of 293-T-REX-E2F6 cells after 8 days of treatment with DMSO or doxycycline. FIG. 9J is a schematic diagram showing a model depicting multiple roles of ATR in the control of HR capacity.
Cells cultured from 10 cm dish were collected and lysed in 1 ml of TRIzol (Invitrogen). Chloroform was added to the lysed sample to separate RNA. Separated RNA was precipitated by isopropyl alcohol, followed by two washes with 75% ethanol. 1 μg of extracted RNA from each sample was then reverse transcribed with Bio-Rad iScript cDNA synthesis kit. The samples (˜100 ng) were analyzed in a Roche 480 light cycler in a total of 15 μl containing SYBR green mix and primers. The values were calculated using “absolute quantification/2nd derivative max” in lightcycler 480 program and then normalized to the level of GAPDH.

U2OS cancer cells = test: Crystal violet staining survival assay; assay type: cell-based, Human; settings: after 8 days of treatment, 2 or 8 days drug-free
Experimental: First, cells were treated for 5 days with either DMSO or 5 μM ATR inhibitor. Next, 1×10^5 cells of each cell type were plated onto a 10 cm dish and further treated with DMSO, ATR inhibitor and/or PARP inhibitor for additional 3 days. Cells were either fixed or allowed to recover after additional 2 or 8 days in drug-free media.
First, hTERT RPE-1, U2OS, HCT116, HeLa, A2780, or U87 cells were treated for 5 days with either DMSO or 5 μM ATR inhibitor. Next, 1×10^5 cells of each cell type were plated onto a 10 cm dish and further treated with DMSO, ATR inhibitor, and/or PARP inhibitor for an additional 3 days. Cells were then washed with PBS and either fixed in 100% methanol for 15 minutes at 4° C. or fixed after additional 2 or 8 days of culture in drug-free media. Fixed plates were stained with 0.1% crystal violet solution overnight followed by a distilled water wash. Pictures were taken after the plates were dried. For quantitation of cell viability, total viable cells were counted using a hematocytometer after indicated treatment.

U2OS cells [2] = test: SILAC/MS proteomic analysis of nuclear proteins (protein abundance); assay type: cell-based, Human; settings: U2OS nuclear proteome; 5 μM ATRi, 8 days vs untreated
Experimental: FIG. 5A is a schematic diagram of the SILAC/MS experiment. FIG. 5B is a quadrant diagram of the SILAC/MS experiment. Each dot represents a different identified protein. Proteins with abundance reduced two-fold or more after ATRi treatment are shown in the upper-left corner (white quadrant). FIG. 5C is a WB analysis of U2OS cells after 8 days of chronic treatment with 5 μM of ATRi or ATMi. FIG. 5D is a time course WB analysis of U2OS cells during chronic treatment with 5 μM ATRi. FIG. 5E is a WB analysis of U2OS cells at distinct cell cycle stages. Cells were treated with 1 mM hydroxyurea (HU) or 50 ng/ml nocodazole (Noc) for 24 hours. HU treated cells were released for 2.5 hours in HU-free media. FIG. 5F is a WB analysis of U2OS cells untreated or treated for 8 days with 5 μM ATRi.
For quantitative proteomic analysis, U2OS cells chronically treated with DMSO or ATR inhibitor were cultured, respectively, in “light” or “heavy” SILAC DMEM media (ThermoFisher Scientific 88425) supplemented with 10% dialyzed FBS and penicillin/streptomycin. “Light” SILAC media was supplemented with “light” (normal) arginine ^12C6, […], while “heavy” SILAC media contained “heavy” lysine ^13C6, ^15N2 and “heavy” arginine ^13C6, ^15N4. […] HILIC fractions were dried and reconstituted in 0.1% trifluoroacetic acid and analyzed using a Q-Exactive Orbitrap and Lumos mass spectrometer. […]

T1 sequence (Q13535 whole entry): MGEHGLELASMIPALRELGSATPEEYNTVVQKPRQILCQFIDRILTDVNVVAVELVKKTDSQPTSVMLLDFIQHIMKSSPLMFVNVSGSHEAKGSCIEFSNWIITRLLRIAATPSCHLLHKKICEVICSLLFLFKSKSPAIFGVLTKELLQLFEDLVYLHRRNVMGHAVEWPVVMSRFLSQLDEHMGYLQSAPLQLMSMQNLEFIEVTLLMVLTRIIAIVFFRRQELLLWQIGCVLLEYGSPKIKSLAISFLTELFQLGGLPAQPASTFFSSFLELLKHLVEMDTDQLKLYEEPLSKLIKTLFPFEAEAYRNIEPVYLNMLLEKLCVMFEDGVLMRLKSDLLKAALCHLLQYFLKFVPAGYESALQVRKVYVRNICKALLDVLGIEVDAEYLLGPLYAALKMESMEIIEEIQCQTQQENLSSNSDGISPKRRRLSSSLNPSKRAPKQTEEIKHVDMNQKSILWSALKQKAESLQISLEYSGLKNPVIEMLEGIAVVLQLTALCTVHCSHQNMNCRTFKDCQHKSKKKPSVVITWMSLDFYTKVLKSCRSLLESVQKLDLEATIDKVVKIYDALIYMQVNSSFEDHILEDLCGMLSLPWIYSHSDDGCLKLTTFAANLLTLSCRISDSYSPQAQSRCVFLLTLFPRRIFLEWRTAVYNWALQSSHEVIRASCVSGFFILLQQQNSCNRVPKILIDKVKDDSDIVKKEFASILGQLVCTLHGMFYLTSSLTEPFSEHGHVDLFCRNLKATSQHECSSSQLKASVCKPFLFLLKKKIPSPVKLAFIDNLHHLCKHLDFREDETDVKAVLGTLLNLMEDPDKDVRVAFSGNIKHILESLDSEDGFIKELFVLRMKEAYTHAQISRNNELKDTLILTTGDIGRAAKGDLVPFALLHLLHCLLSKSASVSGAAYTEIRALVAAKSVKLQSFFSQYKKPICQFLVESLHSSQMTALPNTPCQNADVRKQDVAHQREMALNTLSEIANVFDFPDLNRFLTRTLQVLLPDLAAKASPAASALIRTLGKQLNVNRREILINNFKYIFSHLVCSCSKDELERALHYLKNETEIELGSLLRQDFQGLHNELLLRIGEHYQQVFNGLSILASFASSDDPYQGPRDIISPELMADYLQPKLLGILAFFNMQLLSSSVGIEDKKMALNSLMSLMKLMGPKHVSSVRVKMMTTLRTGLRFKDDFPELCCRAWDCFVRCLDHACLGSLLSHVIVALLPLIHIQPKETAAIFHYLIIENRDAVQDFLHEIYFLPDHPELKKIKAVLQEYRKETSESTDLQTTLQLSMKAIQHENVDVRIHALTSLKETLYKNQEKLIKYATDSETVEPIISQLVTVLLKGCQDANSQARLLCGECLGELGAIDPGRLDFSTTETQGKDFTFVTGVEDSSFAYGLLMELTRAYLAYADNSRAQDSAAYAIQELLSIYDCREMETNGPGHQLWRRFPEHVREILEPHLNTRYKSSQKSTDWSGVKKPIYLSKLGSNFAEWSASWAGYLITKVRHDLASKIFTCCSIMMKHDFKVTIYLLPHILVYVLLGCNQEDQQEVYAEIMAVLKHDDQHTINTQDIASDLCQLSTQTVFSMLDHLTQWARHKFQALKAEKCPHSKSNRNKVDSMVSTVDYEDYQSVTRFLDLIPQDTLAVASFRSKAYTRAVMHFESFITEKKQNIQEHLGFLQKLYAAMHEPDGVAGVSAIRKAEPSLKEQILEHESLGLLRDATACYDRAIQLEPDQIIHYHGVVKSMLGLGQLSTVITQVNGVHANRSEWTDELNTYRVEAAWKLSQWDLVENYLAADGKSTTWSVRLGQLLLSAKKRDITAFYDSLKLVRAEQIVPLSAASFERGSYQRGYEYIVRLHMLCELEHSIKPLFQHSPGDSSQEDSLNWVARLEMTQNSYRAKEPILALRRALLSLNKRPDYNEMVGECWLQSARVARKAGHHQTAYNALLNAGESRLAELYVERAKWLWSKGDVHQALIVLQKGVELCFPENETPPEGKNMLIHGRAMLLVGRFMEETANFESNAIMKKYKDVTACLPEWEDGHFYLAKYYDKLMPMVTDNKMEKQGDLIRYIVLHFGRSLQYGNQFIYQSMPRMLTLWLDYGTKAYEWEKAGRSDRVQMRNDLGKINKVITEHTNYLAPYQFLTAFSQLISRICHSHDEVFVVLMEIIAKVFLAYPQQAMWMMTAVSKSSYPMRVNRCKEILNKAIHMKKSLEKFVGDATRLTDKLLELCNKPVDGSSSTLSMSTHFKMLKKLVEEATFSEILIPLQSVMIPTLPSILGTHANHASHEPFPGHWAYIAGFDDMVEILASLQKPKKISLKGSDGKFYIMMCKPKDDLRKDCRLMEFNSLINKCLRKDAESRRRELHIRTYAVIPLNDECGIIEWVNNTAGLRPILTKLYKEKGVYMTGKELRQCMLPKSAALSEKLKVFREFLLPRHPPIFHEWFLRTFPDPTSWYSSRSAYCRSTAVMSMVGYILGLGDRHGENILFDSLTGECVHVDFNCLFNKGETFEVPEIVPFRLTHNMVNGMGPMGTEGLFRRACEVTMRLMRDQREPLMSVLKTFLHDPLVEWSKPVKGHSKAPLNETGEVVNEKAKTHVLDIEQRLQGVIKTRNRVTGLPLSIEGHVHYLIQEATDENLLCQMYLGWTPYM
T1 sequence (Q8WXE1 whole entry partner): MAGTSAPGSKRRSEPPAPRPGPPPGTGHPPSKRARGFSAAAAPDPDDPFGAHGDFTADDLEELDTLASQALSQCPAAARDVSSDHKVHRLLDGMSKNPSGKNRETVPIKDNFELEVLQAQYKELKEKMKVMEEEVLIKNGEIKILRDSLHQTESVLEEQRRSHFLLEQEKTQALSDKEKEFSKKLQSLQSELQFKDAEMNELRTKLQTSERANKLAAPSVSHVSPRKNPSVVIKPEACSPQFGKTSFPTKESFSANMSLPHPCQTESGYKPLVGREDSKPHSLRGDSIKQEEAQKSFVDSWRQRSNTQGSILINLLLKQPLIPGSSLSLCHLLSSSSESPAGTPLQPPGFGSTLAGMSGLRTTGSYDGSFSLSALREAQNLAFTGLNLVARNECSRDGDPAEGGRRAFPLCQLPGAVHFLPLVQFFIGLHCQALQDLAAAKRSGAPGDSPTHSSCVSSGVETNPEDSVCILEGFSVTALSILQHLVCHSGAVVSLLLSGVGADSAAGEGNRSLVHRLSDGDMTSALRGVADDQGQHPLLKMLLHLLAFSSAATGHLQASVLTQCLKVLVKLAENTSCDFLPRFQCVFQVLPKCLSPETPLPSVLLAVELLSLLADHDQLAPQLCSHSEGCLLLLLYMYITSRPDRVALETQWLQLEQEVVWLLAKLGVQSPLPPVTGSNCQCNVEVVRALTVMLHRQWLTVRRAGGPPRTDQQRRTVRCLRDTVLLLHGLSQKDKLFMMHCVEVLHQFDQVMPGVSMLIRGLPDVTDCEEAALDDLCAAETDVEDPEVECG

SMILES: CS(=O)(=O)c1ccc(-c2cnc(N)c(C(=O)Nc3ccccc3)n2)cc1 [ATRi, VE-821]
- ATR inhibition monitored by CHK1 phosphorylation (ATR): almost complete ATR inhibition
- mRNA levels of BRCA1 and RAD51 (U2OS cells [1]; ATRi 5 μM 8 days or CHK1i 0.2 μM 5 days): reduction in the mRNA levels of BRCA1 and RAD51
- mRNA levels of 53BP1 (U2OS cells [1]; ATRi 5 μM 8 days): major changes in the mRNA levels of 53BP1 were not observed
- Recovery in drug-free media (crystal violet) (U2OS cancer cells): recovered after switching to drug-free media
- Abundance of proteins required for HR-mediated repair, including BRCA1 and FANCJ (SILAC/MS) (U2OS cells [2]): reduced
